Laboratory results as given in patent US7304174B2, “CaSR antagonist” (Japan Tobacco Inc., priority 2003, dated 2007).

Biological target: T1, human calcium receptor (Homo sapiens, UniProt P41180)
T1 construct: expressed in transfected cells; host or cells: cell strain derived from rat adrenal, co-transformed with luciferase cDNA
T1 sequence (P41180 20-1078): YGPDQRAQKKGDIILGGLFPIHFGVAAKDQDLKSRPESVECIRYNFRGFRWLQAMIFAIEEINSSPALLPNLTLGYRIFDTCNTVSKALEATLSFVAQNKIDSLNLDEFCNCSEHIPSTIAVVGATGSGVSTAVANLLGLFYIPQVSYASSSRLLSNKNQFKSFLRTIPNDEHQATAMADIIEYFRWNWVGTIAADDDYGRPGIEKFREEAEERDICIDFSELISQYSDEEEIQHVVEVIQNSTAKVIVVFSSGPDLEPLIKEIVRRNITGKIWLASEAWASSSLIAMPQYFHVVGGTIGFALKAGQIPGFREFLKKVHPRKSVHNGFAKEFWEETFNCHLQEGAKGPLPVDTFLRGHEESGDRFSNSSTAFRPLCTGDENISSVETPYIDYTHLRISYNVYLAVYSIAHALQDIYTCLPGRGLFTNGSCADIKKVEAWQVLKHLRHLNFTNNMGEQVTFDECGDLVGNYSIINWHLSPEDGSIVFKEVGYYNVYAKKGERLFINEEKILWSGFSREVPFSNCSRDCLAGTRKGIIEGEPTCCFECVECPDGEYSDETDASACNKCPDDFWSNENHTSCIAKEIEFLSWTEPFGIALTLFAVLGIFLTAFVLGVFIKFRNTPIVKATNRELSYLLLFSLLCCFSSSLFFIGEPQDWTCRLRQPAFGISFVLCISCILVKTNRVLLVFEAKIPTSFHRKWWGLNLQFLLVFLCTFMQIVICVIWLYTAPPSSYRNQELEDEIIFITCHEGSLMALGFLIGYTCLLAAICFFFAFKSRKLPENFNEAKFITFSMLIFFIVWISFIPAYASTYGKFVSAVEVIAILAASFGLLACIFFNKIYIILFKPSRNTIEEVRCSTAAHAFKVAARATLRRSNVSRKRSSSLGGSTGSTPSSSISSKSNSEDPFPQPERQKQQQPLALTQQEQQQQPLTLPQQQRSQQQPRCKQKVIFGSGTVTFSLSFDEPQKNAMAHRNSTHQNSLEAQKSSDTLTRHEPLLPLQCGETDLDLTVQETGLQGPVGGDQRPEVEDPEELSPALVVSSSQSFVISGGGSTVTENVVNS
Assay: Evaluation of antagonistic action on calcium receptor using reporter gene (luciferase)
Type: cell-based
Settings: transformed rat adrenal derived cells, 5 mM calcium chloride, culture 4 hrs, luciferase activity; read-out: Reporter gene assay (IC50, concentration showing 50% inhibitory rate)
Outline: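 Rat adrenal-derived cells transfected with luciferase and human calcium receptor cDNA, in F12 with 0.5% dialyzed horse serum and 0.25% dialyzed fetal bovine serum. Luciferase luminescence gave % inhibition vs control and blank; IC50 at 50% inhibition.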

| IC50 | SMILES |
| --- | --- |
| 21 nM | C[C@@H](OC[C@H](O)CNC(C)(C)Cc1ccc2ccccc2c1)c1ccccc1-c1ccc(C(=O)O)c(N(C)C)c1 [Example 1-77, 3-(dimethylamino)-2′-[1-[(2R)-3-[[1-(naphthalen-2-yl)-2-methylpropan-2-yl]amino]-2-hydroxypropoxy]ethyl]biphenyl-4-carboxylic acid] |
| 17 nM | CC(OC[C@H](O)CNC(C)(C)Cc1ccc2ccccc2c1)c1ccccc1OCc1cccc(C(=O)O)c1 (stereo partly drawn) [Example 2-21, 3-[[2-[1-[(2R)-3-[[1-(naphthalen-2-yl)-2-methylpropan-2-yl]amino]-2-hydroxypropoxy]ethyl]phenoxy]methyl]benzoic acid] |
| 27 nM | COc1cc(-c2ccccc2[C@@H](C)OC[C@H](O)CNC(C)(C)Cc2ccc(Cl)c(F)c2)ccc1C(=O)O [Example 1-82, 2′-[1-[(2R)-3-[[1-(4-chloro-3-fluorophenyl)-2-methylpropan-2-yl]amino]-2-hydroxypropoxy]ethyl]-3-methoxybiphenyl-4-carboxylic acid] |
| 11 nM | Cc1ccc(CC(C)(C)NC[C@@H](O)CO[C@H](C)c2ccccc2-c2ccc(C(=O)O)c(C)c2)cc1F [Example 1-16, 2′-[1-[(2R)-3-[[1-(3-fluoro-4-methylphenyl)-2-methylpropan-2-yl]amino]-2-hydroxypropoxy]ethyl]-3-methylbiphenyl-4-carboxylic acid] |
| 22 nM | Cc1cc(-c2ccccc2[C@@H](C)OC[C@H](O)CNC(C)(C)Cc2ccc(C(F)(F)F)c(F)c2)ccc1C(=O)O [Example 1-92, 2′-[1-[(2R)-3-[[1-(3-fluoro-4-trifluoromethylphenyl)-2-methylpropan-2-yl]amino]-2-hydroxypropoxy]ethyl]-3-methylbiphenyl-4-carboxylic acid] |
| 10 nM | CC(OC[C@H](O)CNC(C)(C)Cc1ccc2ccccc2c1)c1ccccc1Oc1ccc(C(=O)O)cc1 (stereo partly drawn) [Example 2-4, 4-[2-[1-[(2R)-3-[[1-(naphthalen-2-yl)-2-methylpropan-2-yl]amino]-2-hydroxypropoxy]ethyl]phenoxy]benzoic acid] |
| 53 nM | C[C@@H](OC[C@H](O)CNC(C)(C)Cc1ccc2ccccc2c1)c1ccccc1Cc1ccc(C(=O)O)cc1 [Example 2-14, 4-[2-[1-[(2R)-3-[[1-(naphthalen-2-yl)-2-methylpropan-2-yl]amino]-2-hydroxypropoxy]ethyl]benzyl]benzoic acid] |
| 14 nM | Cc1ccc(CC(C)(C)NC[C@@H](O)CO[C@H](C)c2ccccc2-c2ccc(C)c(C(=O)O)c2)cc1F [Example 1-86, 2′-[1-[(2R)-3-[[1-(3-fluoro-4-methylphenyl)-2-methylpropan-2-yl]amino]-2-hydroxypropoxy]ethyl]-4-methylbiphenyl-3-carboxylic acid] |
| 18 nM | Cc1cc(-c2ccccc2[C@H](OC[C@H](O)CNC(C)(C)Cc2ccc3ccccc3c2)C2CC2)ccc1C(=O)O [Example 1-11, 2′-[(cyclopropyl)[(2R)-3-[[1-(naphthalen-2-yl)-2-methylpropan-2-yl]amino]-2-hydroxypropoxy]methyl]-3-methylbiphenyl-4-carboxylic acid] |
| 4 nM | CCc1cc(-c2ccccc2[C@@H](C)OC[C@H](O)CNC(C)(C)Cc2ccc(Cl)c(F)c2)ccc1C(=O)O [Example 1-51, 3-ethyl-2′-[1-[(2R)-3-[[1-(4-chloro-3-fluorophenyl)-2-methylpropan-2-yl]amino]-2-hydroxypropoxy]ethyl]biphenyl-4-carboxylic acid] |
| 22 nM | Cc1cc(C(=O)O)ccc1-c1ccccc1[C@@H](C)OC[C@H](O)CNC(C)(C)Cc1ccc(Cl)cc1F [Example 1-84, 2′-[1-[(2R)-3-[[1-(4-chloro-2-fluorophenyl)-2-methylpropan-2-yl]amino]-2-hydroxypropoxy]ethyl]-2-methylbiphenyl-4-carboxylic acid] |
| 12 nM | Cc1cc(C(=O)O)cc(C)c1-c1ccccc1[C@@H](C)OC[C@H](O)CNC(C)(C)Cc1ccc2ccccc2c1 [Example 1-75, 2,6-dimethyl-2′-[1-[(2R)-3-[[1-(naphthalen-2-yl)-2-methylpropan-2-yl]amino]-2-hydroxypropoxy]ethyl]biphenyl-4-carboxylic acid] |
| 12 nM | Cc1ccc(CC(C)(C)NC[C@@H](O)CO[C@H](C)c2ccccc2-c2ccc(C(=O)O)c(C)c2)cc1 [Example 1-22, 2′-[1-[(2R)-3-[[1-(4-methylphenyl)-2-methylpropan-2-yl]amino]-2-hydroxypropoxy]ethyl]-3-methylbiphenyl-4-carboxylic acid] |
| 5 nM | C[C@@H](OC[C@H](O)CNC(C)(C)Cc1ccc2ccccc2c1)c1ccccc1-c1ccc(C(=O)O)c(N)c1 [Example 1-70, 3-amino-2′-[1-[(2R)-3-[[1-(naphthalen-2-yl)-2-methylpropan-2-yl]amino]-2-hydroxypropoxy]ethyl]biphenyl-4-carboxylic acid] |
| 9 nM | C[C@@H](OC[C@H](O)CNC(C)(C)Cc1ccc2ccccc2c1)c1ccccc1-c1ccc(CO)c(C(=O)O)c1 [Example 1-44, 4-(hydroxymethyl)-2′-[1-[(2R)-3-[[1-(naphthalen-2-yl)-2-methylpropan-2-yl]amino]-2-hydroxypropoxy]ethyl]biphenyl-3-carboxylic acid] |
| 20 nM | C[C@@H](OC[C@H](O)CNC(C)(C)Cc1ccc(Cl)c(F)c1)c1ccccc1-c1ccc(C(=O)O)c(CO)c1 [Example 1-106, 2′-[1-[(2R)-3-[[1-(4-chloro-3-fluorophenyl)-2-methylpropan-2-yl]amino]-2-hydroxypropoxy]ethyl]-3-(hydroxymethyl)biphenyl-4-carboxylic acid] |
| 3 nM | Cc1ccc(CC(C)(C)NC[C@@H](O)CO[C@H](C)c2ccccc2Oc2ccc(C(=O)O)cc2Cl)cc1F [Example 2-30, 4-[2-[1-[(2R)-3-[[1-(3-fluoro-4-methylphenyl)-2-methylpropan-2-yl]amino]-2-hydroxypropoxy]ethyl]phenoxy]-3-chlorobenzoic acid] |
| 23 nM | Cc1cc(C(=O)O)ccc1-c1ccccc1[C@@H](C)OC[C@H](O)CNC(C)(C)Cc1ccc2ccccc2c1 [Example 1-54, 2-methyl-2′-[1-[(2R)-3-[[1-(naphthalen-2-yl)-2-methylpropan-2-yl]amino]-2-hydroxypropoxy]ethyl]biphenyl-4-carboxylic acid] |
| 5 nM | CC(=O)Nc1cc(-c2ccccc2[C@@H](C)OC[C@H](O)CNC(C)(C)Cc2ccc3ccccc3c2)ccc1C(=O)O [Example 1-71, 3-(acetylamino)-2′-[1-[(2R)-3-[[1-(naphthalen-2-yl)-2-methylpropan-2-yl]amino]-2-hydroxypropoxy]ethyl]biphenyl-4-carboxylic acid] |
| 82 nM | COc1ccc(CC(C)(C)NC[C@@H](O)CO[C@H](C)c2ccccc2-c2ccc(C(=O)O)c(C(F)(F)F)c2)c(F)c1 [Example 1-29, 2′-[1-[(2R)-3-[[1-(2-fluoro-4-methoxyphenyl)-2-methylpropan-2-yl]amino]-2-hydroxypropoxy]ethyl]-3-(trifluoromethyl)biphenyl-4-carboxylic acid] |
| 54 nM | Cc1ccc(CC(C)(C)NC[C@@H](O)COC(C)c2ccccc2Oc2cccc(C(=O)O)c2)cc1F (stereo partly drawn) [Example 2-8, 3-[2-[1-[(2R)-3-[[1-(3-fluoro-4-methylphenyl)-2-methylpropan-2-yl]amino]-2-hydroxypropoxy]ethyl]phenoxy]benzoic acid] |
